In paper PMC7139549, “TLD1433 Photosensitizer Inhibits Conjunctival Melanoma Cells in Zebrafish Ectopic and Orthotopic Tumour Models” (Cancers, 2020):
Read-outs that look alike come from different tables or passages of the source.

Test system: CM2005.1 conjunctival melanoma cell line
Experiment: SRB cell viability assay, CM2005.1
Assay type: cell-based, Human
Procedure: TLD1433 is known to generate reactive oxygen species (ROS) with high quantum efficacy in many cancer cell lines. However, there is no report of the in vitro toxicity of this compound in eye melanoma (UM) cell lines. We determined the cell viability of three conjunctival melanoma cell lines (CRMM1, CRMM2 and CM2005.1), and three uveal melanoma cell lines (OMM1, OMM2.5, MEL270) in the presence of TLD1433, both in the dark or under green light irradiation (21 mW/cm^2, 19 J/cm^2, 520 nm, 15 min), and compared this viability to epidermoid carcinoma A431 and cutaneous melanoma A375 cell lines under the same conditions. The protocol used was based on previous work from the Bonnet group, and differed slightly from recommendations from McFarland et al.. […] The effective concentration (EC50) values, i.e., the concentration required to reduce cell viability by 50% compared to untreated wells, were assessed by fitting the dose-response curves with a Hill equation. The phototoxicity index (PI), defined as the ratio of the dark EC50 to the light EC50, was also calculated and represents the amplification of TLD1433 activity with a light trigger. […]
Figure 2 Cell viability after TLD1433 treatment of eight tumour cell lines (CRMM1, CRMM2, CM2005.1, OMM1, OMM2.5, MEL270, A431, A375). […] The absorbance of Sulforhodamine B in solution was measured at 520 nm. […]
At day 0, cells were detached using 1mL of trypsin, resuspended in 4 mL of media and transferred to a 15 mL corning falcon tube. Cells were counted using trypan blue and BioRad® TC20™ automated cell counter (Figure 11). Dilutions of 6000 (CRMM1), 6000 (CRMM2), 8000 (CM2005.1), 6000 (OMM1), 6000 (OMM2.5), 6000 (MEL270) 8000 (A431), and 4000 (A375) cells/well were calculated from each cell suspension at a final volume of 6 mL using the following formula: Vc=(Vt×10C)/Lc where Vt = total volume of solution, C = number of cells per well/per 100 μL and Lc = live cells count (cells/mL). […] Next day, the dye was dissolved using Tri-base (0.25%) and absorbance of SRB at 510 nm was recorded from each well using a Tecan plate reader. […]

Q: Which EC50 (CM2005.1, dark, 24 h treatment, SRB, read-out: EC50, dark) does the source give for `Cc1ccnc(-c2cc(C)ccn2)c1.Cc1ccnc(-c2cc(C)ccn2)c1.[Cl-].[Cl-].[Ru+2].c1csc(-c2ccc(-c3ccc(-c4nc5c6cccnc6c6ncccc6c5[nH]4)s3)s2)c1` [TLD1433] here?
A: 1100 nM

Q: What about the EC50 (CM2005.1, green light 520 nm, 15 min, 21 mW/cm^2, 19 J.cm^−2, DLI 24 h, read-out: EC50,light) of the same compound?
A: 5.8 nM

Q: What about the “PI (photo index)” value (CM2005.1, ratio of dark and light EC50, 19 J.cm^−2 green light) of the same compound?
A: 190
